From patent publication US11655244B2, “Carbazole compounds and methods of use thereof” (GSNO Therapeutics, Inc, priority 2017, dated 2023)

Tests used:
[1] = system: non-alcoholic steatohepatitis (NASH) in male C57BL/6 mice; assay: Non-alcoholic steatohepatitis (NASH) model, Streptozotocin plus 60% kcal fat diet; assay type: in vivo; conditions: for liver to body weight ratio: disease control 0.066; for decrease of percentage collagen proportion area (CPA), Masson's trichrome staining, liver: vs disease control
Procedure: Timed pregnant mice (n=44) were selected for the study. The delivered pups were subcutaneously injected on post-natal day 2 with 200 μg of Streptozotocin and were allowed to remain with the mother until they reached the weanling age. After weanling, the male pups were selected and fed with 60% kcal fat diet (Research Diet-D12492) for next 6 weeks. All the animals were observed once daily for clinical signs and twice daily for morbidity and mortality.
Mice were dosed with vehicle, Compound 17 (at 3 mg/kg or 10 mg/kg) and 10 mg/kg of reference compound (either Obeticholic acid (OCA) or Elafibranor (ELA, GFT505)) once daily before the start of dark cycle (6:00 PM) from day 0 to 21. Animal body weight measurements were made daily for the complete duration of the experiment. Animals were dosed for 21 days (from week 9 to 12) with the test and reference compounds. Blood glucose was estimated before the treatment start, day 11 and on the termination day. Histopathology analysis including the H&E staining, Masson's trichrome staining and the Oil-red-O (ORO) staining was performed for the liver tissues.

[2] = system: Db/db mouse aorta segments; assay: Vascular reactivity of aorta segments (tensometer); conditions: db/db mice; vs vehicle
Procedure: (§1) Vascular reactivity: Db/db mouse aorta segments were equilibrated in oxygenated PBS (95% O2 and 5% CO2) at 37° C. Following equilibration, 1 μM phenylephrine was added to each ring for submaximal contraction. After stabilization, Compound 17 was added to the rings and the effect on the muscle tone of the aorta segments was monitored with a tensometer as dose-responses from 10^-8 M to 10^-5 M for acetylcholine (“Ach”) and A23187 (5-(methylamino)-2-({(2R,3R,6S,8S,9R,11R)-3,9,11-trimethyl-8-[(1S)-1-methyl-2-oxo-2-(1H-pyrrol-2-yl)ethyl]-1,7-dioxaspiro[5.5]undec-2-yl}methyl)-1,3-benzoxazole-4-carboxylic). 8-Isoprostane was measured in plasma and heart homogenates by standard Elisa methods.

GSNOR enzyme = GSNOR enzyme (Homo sapiens, UniProt P11766); assay: GSNOR inhibition assay (rate of NADH consumption, 340 nm absorbance); assay type: biochemical; conditions: Table 2b; read-out: IC50 Micromolar
db/db mice = assay: Insulin and glucose tolerance tests, survival and 8-isoprostane in db/db diabetic mice; assay type: in vivo
Procedure: Compound 17 was studied in 6 week intra-gastric insulin and glucose tolerance tests in db/db mice dosed orally with Compound 17 at 10 mg/kg for 6 weeks qd. The male db/db mice were started on study at 6 weeks of age and were given a 60% high fat diet to increase the diabetic phenotype.
as §1

IL-6 = assay: LPS/cytokine assay (mouse inflammation assay), IL-6; assay type: in vivo, CD-1 male mice
Procedure: Table 2b also includes additional biological data of compounds described herein. The LPS/cytokine Assay was carried out in CD-1 male mice. The assay measured the level of various cytokines, including IL-6, IL-17, and IL-23, after induction by bacterial liposaccharide (LPS). Compounds were dosed by IP or IV routes of administration at varying times before and after LPS and the cytokine concentrations were measured at varying times, typically 6 hrs, after LPS by standard methods using ELISA kits.
BIOLOGICAL TESTING: Compounds 10 and 17 from Table 1 were tested in a mouse inflammation assay. Briefly, CD-1 mice were dosed with compound, 12 hrs before injecting mice I.P. with the potent cytokine inducer, bacterial lipopolysaccharide (LPS). The mice were euthanized 6 hrs after the LPS was injected and their serum prepared by standard methods. The concentration of IL-6 in the serum of each experimental animal was measured using an IL-6 ELISA kit from Enzo. The compounds tested were active.
This LPS/cytokine assay was carried out in healthy mice and measured the level of cytokine IL-6, IL-17, and 23 induction by LPS. Compounds are dosed (either orally (“p.o.”) or intravenously (“i.v.”) at varying times before and after LPS, and the cytokines are measured at varying times after LPS. The effect of the tested compounds (Table 5) on IL-6 release is shown in FIG. 7. The effect of the tested compounds (Table 6) on IL-17 an IL-23 release is shown in FIG. 11 and FIG. 12, respectively.

Chain of GSNOR enzyme (P11766 whole entry): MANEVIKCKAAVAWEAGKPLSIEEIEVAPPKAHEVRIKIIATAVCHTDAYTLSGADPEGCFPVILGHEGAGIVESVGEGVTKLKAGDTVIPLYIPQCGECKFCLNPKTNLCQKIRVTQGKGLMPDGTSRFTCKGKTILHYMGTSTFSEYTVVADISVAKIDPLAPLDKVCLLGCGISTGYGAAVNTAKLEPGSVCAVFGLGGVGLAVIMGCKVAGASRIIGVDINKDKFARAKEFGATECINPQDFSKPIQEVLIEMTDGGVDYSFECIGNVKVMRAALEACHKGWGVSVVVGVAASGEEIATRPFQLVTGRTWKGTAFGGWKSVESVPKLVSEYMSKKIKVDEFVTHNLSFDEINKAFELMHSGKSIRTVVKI

Structure (SMILES): NC(=O)CCn1c2ccc(-n3ccnc3)cc2c2ccc(CCC(=O)O)cc21 [Compound 17, 3-(imidazol-1(H)-yl)-7-(2-carboxylethyl)-9(H)-(2-aminocarbonylethyl) carbazole]
- ORO (Oil-Red-O) steatosis score relative to disease control ([1]; 3 mg/kg): −28%
- change of liver to body weight ratio compared with disease control ([1]; 3 mg/kg): −18.5%
- steatosis and lobular inflammation in the liver as indicated by the NAS ([1]; 3 mg/kg and 10 mg/kg): markedly reduced steatosis and lobular inflammation in the liver
- weight put on relative to naïve controls at day 21 ([1]; 3 mg/kg): +1.3%
- liver to body weight ratio ([1]; 3 mg/kg): 0.054
- decrease of percentage collagen proportion area (CPA), Masson's trichrome staining, liver ([1]; 3 mg/kg): 29%
- ORO (Oil-Red-O) steatosis score relative to disease control ([1]; 10 mg/kg): −52%
- change of liver to body weight ratio compared with disease control ([1]; 10 mg/kg): −16.2%
- reduction of plasma glucose relative to disease control ([1]; 10 mg/kg, i.p., p<0.01): 17.4%
- weight put on relative to naïve controls at day 21 ([1]; 10 mg/kg): −43%
- liver to body weight ratio ([1]; 10 mg/kg): 0.055
- decrease of percentage collagen proportion area (CPA), Masson's trichrome staining, liver ([1]; 10 mg/kg): 20%
- body weight increase compared with disease controls ([1]; 3 and 10 mg/kg, 21 days of treatment): both less than disease controls
- NAS (in words) ([1]; 3 and 10 mg/kg, p<0.05): significantly decreased the NAS
- change in body weight (g), Mean ([1]; Day 1, 3 mg/kg once daily): 0.00 g
- change in body weight (g), Mean ([1]; Day 1, 10 mg/kg once daily): 0.00 g
- change in body weight (g), Mean ([1]; Day 2, 3 mg/kg once daily): 0.54 g
- change in body weight (g), Mean ([1]; Day 2, 10 mg/kg once daily): 0.65 g
- change in body weight (g), Mean ([1]; Day 3, 3 mg/kg once daily): 0.85 g
- change in body weight (g), Mean ([1]; Day 3, 10 mg/kg once daily): 0.96 g
- change in body weight (g), Mean ([1]; Day 4, 3 mg/kg once daily): 0.48 g
- change in body weight (g), Mean ([1]; Day 4, 10 mg/kg once daily): 0.76 g
- change in body weight (g), Mean ([1]; Day 5, 3 mg/kg once daily): 0.35 g
- change in body weight (g), Mean ([1]; Day 5, 10 mg/kg once daily): 0.81 g
- change in body weight (g), Mean ([1]; Day 6, 3 mg/kg once daily): 0.68 g
- change in body weight (g), Mean ([1]; Day 6, 10 mg/kg once daily): 0.84 g
- change in body weight (g), Mean ([1]; Day 7, 3 mg/kg once daily): 0.54 g
- change in body weight (g), Mean ([1]; Day 7, 10 mg/kg once daily): 0.19 g
- change in body weight (g), Mean ([1]; Day 8, 3 mg/kg once daily): 0.21 g
- change in body weight (g), Mean ([1]; Day 8, 10 mg/kg once daily): 0.78 g
- change in body weight (g), Mean ([1]; Day 9, 3 mg/kg once daily): 0.53 g
- change in body weight (g), Mean ([1]; Day 9, 10 mg/kg once daily): 0.80 g
- change in body weight (g), Mean ([1]; Day 10, 3 mg/kg once daily): 0.56 g
- change in body weight (g), Mean ([1]; Day 10, 10 mg/kg once daily): 0.89 g
- change in body weight (g), Mean ([1]; Day 11, 3 mg/kg once daily): 0.40 g
- change in body weight (g), Mean ([1]; Day 11, 10 mg/kg once daily): 0.91 g
- change in body weight (g), Mean ([1]; Day 12, 3 mg/kg once daily): -0.49 g
- change in body weight (g), Mean ([1]; Day 12, 10 mg/kg once daily): -0.08 g
- change in body weight (g), Mean ([1]; Day 13, 3 mg/kg once daily): 0.81 g
- change in body weight (g), Mean ([1]; Day 13, 10 mg/kg once daily): 0.74 g
- change in body weight (g), Mean ([1]; Day 14, 3 mg/kg once daily): 1.10 g
- change in body weight (g), Mean ([1]; Day 14, 10 mg/kg once daily): 0.71 g
- change in body weight (g), Mean ([1]; Day 15, 3 mg/kg once daily): 0.84 g
- change in body weight (g), Mean ([1]; Day 15, 10 mg/kg once daily): 1.01 g
- change in body weight (g), Mean ([1]; Day 16, 3 mg/kg once daily): 1.32 g
- change in body weight (g), Mean ([1]; Day 16, 10 mg/kg once daily): 1.09 g
- change in body weight (g), Mean ([1]; Day 17, 3 mg/kg once daily): 1.38 g
- change in body weight (g), Mean ([1]; Day 17, 10 mg/kg once daily): 1.13 g
- change in body weight (g), Mean ([1]; Day 18, 3 mg/kg once daily): 1.11 g
- change in body weight (g), Mean ([1]; Day 18, 10 mg/kg once daily): 0.97 g
- change in body weight (g), Mean ([1]; Day 19, 3 mg/kg once daily): 1.22 g
- change in body weight (g), Mean ([1]; Day 19, 10 mg/kg once daily): 1.16 g
- change in body weight (g), Mean ([1]; Day 20, 3 mg/kg once daily): 1.56 g
- change in body weight (g), Mean ([1]; Day 20, 10 mg/kg once daily): 0.80 g
- change in body weight (g), Mean ([1]; Day 21, 3 mg/kg once daily): 1.57 g
- change in body weight (g), Mean ([1]; Day 21, 10 mg/kg once daily): 0.89 g
- vascular reactivity [2]: increased their vascular reactivity
- IC50 (GSNOR enzyme): 1000 to 5000 nM
- insulin and glucose tolerances (db/db mice; 10 mg/kg orally qd for 6 weeks, 60% high fat diet): statistically significantly reduced insulin and glucose tolerances
- amount of F2-IsoPs in cardiac tissue (myocardial 8-isoprostane) (db/db mice; db/db mice, vs vehicle): significantly reduces
- increase of survival in severely debilitated diabetic mice (db/db mice; db/db mice, vs vehicle): 66%
- LPS/IL6 Lowest tested active (IL-6; CD-1 male mice, IP or IV, cytokine typically 6 hrs after LPS): 0.03 mg/kg
- IL-6 in serum after LPS (mouse inflammation assay) (IL-6; dosed 12 hrs before LPS I.P., serum 6 hrs after LPS): active
